Measured values from patent US20240316012A1, “METHODS FOR TREATING LYMPHOMA” (Northwestern University, priority 2023, published 2024).

Columns and labels:
Type in all cases: cell-based, mouse
ITK-SYK^+PD-1− cells = assay: Lactate production of ITK-SYK+PD-1− cells incubated with small molecule inhibitors; details: ITK-SYK+PD-1− cells in vitro; FIGS. 10A-C
Procedure: (§1) Cell culture. Unless otherwise indicated, murine cells were cultured in DMEM containing 20% FCS. The following compounds were used for the in vitro experiments: glycolysis inhibitor 2-deoxy-D-glucose (D8375, Sigma), mTOR inhibitor Torin-1 (S2827, Selleckchem), HIF1α inhibitor PX-478 2HCl (S7612, Selleckchem), ATP citrate lyase inhibitor BMS-303141 (4609, Tocris), fatty acid synthase inhibitor FT113 (S6666, Selleckchem), and BET-p300/CBP dual inhibitor NE02734 (S9648, Selleckchem). Inhibitors were dissolved in DMSO or water, and the cell culture medium was supplemented with the indicated concentrations of the compound or DMSO/water (as control).
To test the dependency of fully transformed lymphomas with Pdcd1 deletion on the released mTOR-HIF1α-glycolysis cascade, Applicants incubated ITK-SYK^+PD-1− cells with small molecule inhibitors of mTOR, HIF1α, or glycolysis^22,23.

[1] = tested on: ITK-SYK^+PD-1^− lymphoma cells; assay: In vitro survival of PD-1 deficient lymphoma cells under inhibitor treatment; details: FIGS. 10D-F
Procedure: as §1
To determine whether ACLY activity is required for PD-1-deficient lymphoma cell survival, Applicants next incubated transformed ITK-SYK^+PD-1− T cells from tamoxifen-injected ITK-SYK^CD4-creERT2; Pdcd1^−/− mice with an ACLY inhibitor. This treatment killed the ITK-SYK^+PD-1^− lymphoma cells (FIG. 11F, p=0.0037).

H3K27 acetylation = assay: Flow cytometry for H3K27ac after in vitro culture with inhibitors
From the text: Data are normalized to viable cell number and z-scores per metabolite. […] P=two-sided Student's t-test. The data are presented as the mean±SEM and individual data points for each animal. Cross indicates death of the animal. […] P=two-sided Student's t-test. Shown are the mean±SD and individual data points. […] Data are presented as mean±SD and individual data points. […] P=paired two-sided Student's t-test. Data are presented as the mean±SD. […] Data was normalized as in (a). P=two-sided Student's t-test. The data are presented as the mean±SEM. […] Experiment as in (h) (n=3 mice genotype). Data was normalized as in (a). P=two-sided Student's t-test. Data are presented as the mean±SD. FIGS. 3-D, Representative data from two independent experiments with n=3 biological replicates per group. FIG. 3E, Representative data from two independent experiments with two biological replicates per group. FIG. 3F, Representative data from two independent experiments. FIG. 3G, Representative data from two independent experiments with three biological replicates per group. FIG. 3H, Representative data from one experiment with four biological replicates per group. FIG. 3I, Representative data from one experiment with three biological replicates per group FIGS. 4A-4H show ACLY is a critical effector molecule downstream of PD-1. […] ITK-SYK^+ cells were FACS-sorted from ITK-[…]2 mice on d5 after TAM and 12 h anti-PD-L1 or isotype control antibody treatment (i.p., 200 μg). P=paired two-sided Student's t-test. Data are presented as the mean±SD. […] Spleen-derived single-cell suspensions were FACS-sorted from ITK-[…]2 mice on d5 after TAM and cultured in vitro overnight with anti-PD-L1 or isotype control antibodies and the PI3K inhibitors (“iPI3K”) Wortmannin (20 nM), LY294002 (20 μM), or DMSO. […] Spleen-derived lymphocytes, FACS-sorted from ITK-[…]2 and ITK-[…]2; Pdcd1^-/- mice on d5 after TAM were incubated for three days in vitro. P=two-sided Student's t-test. Data are presented as the mean±SD. […] Protein lysates were generated after 48 h in vitro culture. RNP, ribonucleoprotein. […] P=two-sided Logrank-test. […] ITK-SYK^+ cells were FACS-sorted from ITK-[…]2 (“Pdcd1^+/+”) and ITK-[…]2; Pdcd1^-/- (“Pdcd1^-/-”) mice on d5 after TAM, fixed, and processed for anti-H3K27ac ChIP-seq analysis. ChIP-seq, chromatin immunoprecipitation sequencing; TSS, transcription start site. FIG. 4B, Representative data from three independent experiments with three biological replicates per group. FIG. 4C, Representative data from two independent experiments with two biological replicates. FIGS. 4D and 4E, Representative data from 3 independent experiments. FIGS. 4F and 4G, Data from one experiment with n=5 mice per group. […] (8752, CST), and assessed by flow cytometry. […]

O=CC[C@@H](O)[C@H](O)[C@H](O)CO [2-DG, 2-deoxy-D-glucose]
production of lactate (ITK-SYK^+PD-1− cells): reduced the production of lactate
toxicity to PD-1 deficient lymphoma cells [1]: toxic
H3K27 acetylation in Pdcd1 deficient lymphoma cells (H3K27 acetylation; 2-DG 1 mM, 4 h in vitro vs DMSO, p=0.0003): reduction in H3K27 acetylation

COc1ccc(-c2ccccc2)cc1NS(=O)(=O)c1cc(Cl)cc(Cl)c1O [BMS-303141]
histone acetylation (H3K27ac) in ITK-SYK+ cells (H3K27 acetylation; BMS-303141 15 μM vs DMSO vehicle control, 3 hours, 4 h): reduced histone acetylation
dependency of H3K27ac on ACLY function in cells with pharmacologically inactivated PD-1 pathway (H3K27 acetylation; anti-PD-L1 vs isotype control pretreated mice, BMS-303141 15 μM, p=0.0131): significantly higher
